From the Deep4Chem optical property database come the findings set out here.

The nature of the data set: photoluminescence quantum yield (fraction); solvent given as SMILES.
[1] abbreviates: in O=P(c1ccccc1)(c1ccccc1)c1ccccc1Oc1ccccc1P(=O)(c1ccccc1)c1ccccc1.

Take `N#Cc1c(-n2c3ccccc3c3ccccc32)cccc1-n1c2ccccc2c2ccccc21`: the photoluminescence quantum yield is, setting by setting: (in Cc1ccccc1) 0.13; under setting [1], 0.28.

Regarding `CCCCC(CC)Cn1c2cc(C#N)ccc2c2ccc(C#Cc3ccc4ccc5cccc6ccc3c4c56)cc21` (configuration not stated), for the setting “in ClCCl”, the photoluminescence quantum yield was 0.59.

Consider `Cn1c(/C=C/c2ccc(/C=C/c3nc4ccccc4[nH]3)cc2)[n+](C)c2ccccc21`, for which the photoluminescence quantum yield came out at 0.157 (in C1CCOC1); 0.109 (in CC#N); 0.103 (in CC(C)=O); 0.12 (in CN(C)C=O); 0.067 (in CO); 0.114 (in CS(C)=O). Also, the photoluminescence quantum yield (in O) is 0.044.

On to `C1=Cc2nc1c(-c1cccs1)c1ccc([nH]1)c(-c1cccs1)c1nc(c(-c3cccs3)c3ccc([nH]3)c2-c2cccs2)C=C1`, for which the photoluminescence quantum yield turned out to be 0.012 (in CN(C)C=O) and 0.0046 (in ClCCl).

`CC1(C)c2ccccc2N(c2ccccc2)c2ccc(-c3ccc(S(=O)(=O)c4ccc(-c5ccc6c(c5)C(C)(C)c5ccccc5N6c5ccccc5)cc4)cc3)cc21`: under setting [1], the photoluminescence quantum yield is 0.87.

For the molecule `F[B-]1(F)n2c(c(-c3ccccc3)c3ccccc32)C(c2ccccc2)=C2C(c3ccccc3)=c3ccccc3=[N+]21`, the photoluminescence quantum yield (in ClCCl) amounted to 0.

With `CCn1c(=O)nc2n(C)c3cc(C)ccc3nc-2c1=O`, the photoluminescence quantum yield came to 0.14 (in C1COCCO1), 0.14 (in CC#N), 0.11 (in CO) and 0.12 (in ClCCCl).

For `CNc1ccc2nc3cc(Cl)c(Cl)cc3nc2c1`, under “in CCO”, the photoluminescence quantum yield is 0.06.

For the molecule `N#Cc1ccc(-c2ccc3c(c2)c2cc(-c4ccc(C#N)cc4)ccc2c2c3nc(-c3ccc(-c4ccc(N(c5ccccc5)c5ccccc5)cc4)cc3)n2-c2ccccc2)cc1`, the photoluminescence quantum yield runs as follows: (in C1CCOC1) 0.54; (in CC#N) 0.51; (in CCCCCC) 0.82; (in CCOCC) 0.9.

As for `CC1=CC(C)=[N+]2C1=Cc1c(C)c(C3=C(C)C4=Cc5c(C)cc(C)n5[B-](F)(F)[N+]4=C3C)c(C)n1[B-]2(F)F`, the photoluminescence quantum yield (in ClCCl) was found to be 0.66.

In turn, `Oc1ccc2ccccc2c1/C=N/C1CCCCC1/N=C/c1c(O)ccc2ccccc12` (configuration not stated) displayed a photoluminescence quantum yield (in CC#N) of 0.078.

For `c1ccc2c(c1)OP1(=NP3(=NP(Oc4ccc5ccc6cccc7ccc4c5c67)(Oc4ccc5ccc6cccc7ccc4c5c67)=N1)Oc1ccccc1-c1ccccc1O3)Oc1ccccc1-2`, the photoluminescence quantum yield (in ClCCl) worked out at 0.82.

Consider `O=C1c2ccccc2C2=Cc3cccc[n+]3[B-](F)(F)N12`, for which, for the setting “in ClCCl”, the photoluminescence quantum yield worked out at 0.47.

With `Cn1nc(-c2ccccc2)c2n[nH]nc2/c1=N\c1ccccn1`, the photoluminescence quantum yield reads like this: (in CC#N) 0.05; (in CCO) 0.06; (in Cc1ccccc1) 0.07.

For the molecule `CCCN1c2ccccc2Sc2cc(/C=C\c3cc(=O)oc4ccc(C)cc34)ccc21`, where the note is “in ClC(Cl)Cl”, the photoluminescence quantum yield turned out to be 0.76.

Take `COc1ccc(C2=[N+]3C(=Nc4c(-c5ccccc5)c(Br)c(-c5ccc(OC)cc5)n4[B-]3(F)F)C(c3ccccc3)=C2Br)cc1`: the photoluminescence quantum yield worked out at 0.1 (in ClC(Cl)Cl) and 0.1 (in ClCCl).

In turn, `CCCCCCCCCC[n+]1cc2ccc3c[n+](CCCCCCCCCC)cc4ccc(c1)c2c34` showed a photoluminescence quantum yield (in CC#N) of 0.5.

`N#Cc1ccc(/C=C/c2ncc(-c3ccccc3)o2)cc1`: the photoluminescence quantum yield (in ClCCl) came to 0.65.

Take `COc1cc(/C=C/c2nc3ccccc3s2)c(OC)cc1/C=C/c1nc(C)nc(C)n1`: the photoluminescence quantum yield runs as follows: (in C1CCOC1) 0.94; (in CC#N) 0.86; (in ClC(Cl)Cl) 0.88; (in ClCCl) 0.86.

Take `C=CCOc1nnc(OCCC(F)(F)C(F)(F)C(F)(F)C(F)(F)C(F)(F)C(F)(F)C(F)(F)C(F)(F)F)nn1`: the photoluminescence quantum yield (in ClCCl) was 0.16 and the photoluminescence quantum yield (in OCC(F)(F)F) is 0.02.

As to `CC[C@H](C)COc1ccc(C2=C3C(C)=CC(C)=[N+]3[B-](F)(F)n3c(C)cc(C)c32)cc1`, the photoluminescence quantum yield (in ClCCl) turned out to be 0.87.

As to `CC(C)(C)OC(=O)CN1CCN(c2ccc3c(-c4ccc(I)cc4)c4ccc(=[N+]5CCN(CC(=O)OC(C)(C)C)CC5)cc-4oc3c2)CC1`, where the note is “in ClCCl”, the photoluminescence quantum yield came out at 0.007.

With `Cc1cc(C)c(B(c2cc(-c3ccc(N(C)C)cc3)sc2-c2sc(-c3ccc(N(C)C)cc3)cc2P(=O)(c2ccccc2)c2ccccc2)c2c(C)cc(C)cc2C)c(C)c1`, for the setting “in CO”, the photoluminescence quantum yield came out at 0.18.

As to `COc1c2ccccc2c(OC)c2c1c1cccc(OC)c1n2C`, the photoluminescence quantum yield was determined as 0.39 (in C1CCCCC1), 0.4 (in CC#N), 0.39 (in CO) and 0.44 (in ClCCl).

`O=C1c2cccc3cc4ccccc4c(c23)C(=O)N1Cc1ccccn1`: the photoluminescence quantum yield runs as follows: (in C1CCOC1) 0.83; (in CCCCCC) 0.61; (in CCO) 0.91; (in Cc1ccccc1) 0.69; (in ClCCl) 0.93.

As for `c1ccc(-c2nc(-c3ccccc3)nc(-c3cccc(-n4c5ccccc5c5c6oc7ccccc7c6ccc54)c3)n2)cc1`, under setting [1], the photoluminescence quantum yield turned out to be 0.311.

Under “in CN(C)C=O”, `NCCCCCCCCCCCCN1C(=O)c2ccc3c4ccc5c6c(ccc(c7ccc(c2c37)C1=O)c64)C(=O)NC5=O` gave a photoluminescence quantum yield of 0.89.

`Cc1cc2ccccc2c2c1c1ccccc1n2-c1ncccn1` registered a photoluminescence quantum yield (in ClCCl) of 0.

Molecule `CCCCCCCCN1c2ccc(C#Cc3cc(C(F)(F)F)cc(C(F)(F)F)c3)cc2Sc2cc(C=O)ccc21` showed a photoluminescence quantum yield (in C1CCOC1) of 0.53; a photoluminescence quantum yield (in CC#N) of 0.53; a photoluminescence quantum yield (in CCCCCC) of 0.6; a photoluminescence quantum yield (in CO) of 0.11; a photoluminescence quantum yield (in CS(C)=O) of 0.77; a photoluminescence quantum yield (in Cc1ccccc1) of 0.67. Also, the photoluminescence quantum yield (in ClC(Cl)Cl) is 0.63.

In turn, `O=C1c2ccccc2C2=Nc3cccc4cccc(c34)N12` gave a photoluminescence quantum yield (in ClCCl) of 0.02.

With `Cc1ccc(-c2cc(-c3ccccc3)c3c(N)nc(N4CCCC4)c(C#N)c3n2)cc1`, the photoluminescence quantum yield runs as follows: (in CC#N) 0.046; (in c1ccccc1) 0.073.

On to `Cc1ccc(N(c2ccc(C)cc2)c2ccc(-c3ccc4c(c3)C(=O)c3ccccc3C4=O)cc2)cc1`, for which the photoluminescence quantum yield turned out to be 0 (in C1CCOC1); 0.403 (in CCCCCC); 0 (in CCOC(C)=O); 0.0041 (in CCOCC); 0.0801 (in Cc1ccccc1); 0.246 (in ClC(Cl)(Cl)Cl). Moreover, the photoluminescence quantum yield (in ClCCl) came out at 0.

In turn, `CCCCCCC(CCCCCC)N1C(=O)c2cccc3c(-c4ccc(OC)c5cccc(C)c45)ccc(c23)C1=O` gave a photoluminescence quantum yield (in CCCCCC) of 0.34; a photoluminescence quantum yield (in CCCCCCCCCCCCCC) of 0.34; a photoluminescence quantum yield (in CCCCCCCCCCCO) of 0.28; a photoluminescence quantum yield (in CCCCO) of 0.047; a photoluminescence quantum yield (in CN(C)C=O) of 0.055; a photoluminescence quantum yield (in Cc1ccccc1) of 0.19. For the setting “in ClC(Cl)Cl”, this molecule had a photoluminescence quantum yield of 0.4.

Turning to `CCc1ccc(-n2c3ccccc3c3cc4c(cc32)c2ccccc2n4-c2ccc(CC)s2)s1`, the photoluminescence quantum yield (in ClC(Cl)Cl) came out at 0.023.

With `COc1ccc(C#Cc2c3cc4ccccc4cc3c(C#Cc3ccc(OC)cc3)c3cc4sc(C)cc4cc23)cc1`, the photoluminescence quantum yield (in ClCCl) amounted to 0.64.
